Assay results as given in patent US20140140925A1, “FOLATE-TARGETED DIAGNOSTICS AND TREATMENT” (priority 2009, published 2014).

Assays:
[1] = system: folate receptors; assay: EC20 scan of ovarian cancer patients at the interim analysis of Example 25; type: in vivo, human; conditions: at the time of the interim analysis of Example 25
From the text: Folate-receptor status in the patient is positive if one or more tumors in the patient have folate receptors capable of binding EC20 or if all tumors in the patient are capable of binding EC20. In one illustrative example, the folate-radioactive imaging agent conjugate is ^99mTc-EC20. At the time of the interim analysis described in Example 25, below, 91.3% of all ovarian cancer patients scanned with EC20 had been “positive” (indicated by having at least one tumor lesion/area that binds EC20) versus 8.7% of patients that were fully EC20 “negative”.
In this visual assessment embodiment (visual detection), lesions are evaluated visually to determine if the patient has a threshold level of functionally active folate receptors indicative of a clinical benefit to the patient. In one aspect, lesions (i.e., tumors) for analysis in each patient are selected by a radiologist according to RECIST (v1.0) criteria. Subsequently, a nuclear medicine physician (i.e. reader) assesses the uptake of the EC20 for each evaluable target lesion visually, and classifies the uptake as “EC20 positive” (marked uptake/mild uptake) or “EC20 negative” (no uptake). In one illustrative example the folate-radioactive imaging agent conjugate is ^99mTc-EC20.

[2] = system: folate receptors; assay: 99mTc-EC20 SPECT uptake in target lesions (EC-FV-02); type: in vivo, human
Method: EC20 Patient Scanning Procedure. Following completion of screening procedures and confirmation of eligibility, all subjects received one intravenous injection of 0.5 mg of folic acid followed within 1-3 minutes by a 1-2 mL injection of 0.1 mg of EC20 labeled with 20-25 mCi of technetium-99m. Patients then underwent SPECT imaging (mid-thigh to head, posterior and anterior images) 1-2 hours following injection of EC20. Target lesions were selected by the radiologist according to RECIST (v1.0) criteria. Subsequently, nuclear medicine physicians assessed EC20 uptake for each target lesion visually, and classified the uptake as “positive” (marked/mild uptake) or “negative” (no uptake).
EC20 Lesion Scoring Procedure.
Forty-five protocol-eligible subjects with a total of 216 RECIST-defined target tumors (ie, “lesions”) were included in this retrospective analysis (table below). One-hundred and forty-five (145/216; 67%) of the lesions were considered EC20 “evaluable.” Of these, 111 (77%) had EC20 “positive” uptake.

[3] = Storage stability of EC20 drug substance and EC20 kits; type: physicochemical; conditions: −20° C. in amber glass bottles with butyl rubber stoppers
Method: EC20 kits were used for preparation of the ^99mTc-EC20 radioactive drug substance. Each kit contained a sterile, non-pyrogenic lyophilized mixture of 0.1 mg EC20, 80 mg sodium α-D-glucoheptonate, […] dihydrate, and sufficient sodium hydroxide or hydrochloric acid to adjust the pH to 6.8±0.2 prior to lyophilization. The lyophilized powder was sealed in a 5 mL vial under an argon atmosphere. The kits were then stored frozen at −20° C. until use or expiration (current shelf life is >2 years). The tin (II) chloride component is present to reduce the added ^99mTc-pertechnetate, while the sodium α-D-glucoheptonate component is present to stabilize the reduced ^99mTc prior to its final chelation to the EC20 compound.
EC20 Drug Substance is stored at −20° C. in amber glass bottles with butyl rubber stoppers.

[4] = of 145 evaluable lesions, visual SPECT assessment, 45 subjects

| Compound | ovarian cancer patients scanned "positive" (at least one tumor lesion/area that binds EC20) [1] | patients fully EC20 "negative" [1] | subjects with EC20 uptake observed visually in at least 1 target lesion ([2]; 45 subjects, EC-FV-02) | Negative (EC20−(neg)) lesions [2, 4] | Positive (EC20+) lesions [2, 4] | uptake in liver, spleen, bladder, and kidney ([2]; organs whose target lesions were considered non-evaluable) | time stable on storage [3] |
| --- | --- | --- | --- | --- | --- | --- | --- |
| Nc1nc2ncc(CNc3ccc(C(=O)N[C@H](CCC(=O)NC[C@@H]4[NH][99Tc]56(=[O])[S]C[C@@H](C(=O)O)[N]5C(=O)[C@H](CC(=O)O)[N]6C4=O)C(=O)O)cc3)nc2c(=O)[nH]1 [EC20] | 91.3% | 8.7% | Eighty-seven percent | 34 (23%) N (%) | 111 (77%) N (%) | inherently high uptake |  |
| Nc1nc2ncc(CNc3ccc(C(=O)N[C@H](CCC(=O)NC[C@H](N)C(=O)N[C@@H](CC(=O)O)C(=O)N[C@@H](CS)C(=O)O)C(=O)O)cc3)nc2c(=O)[nH]1 [EC20 Drug Substance, pteroyl-γ-D-glutamyl-β-L-2,3-diaminopropionyl-L-aspartyl-L-cysteine] |  |  |  |  |  |  | more than 24 months |
